Data set [1] addresses T1, CYP2E1 (Homo sapiens, UniProt P05181).
T1 construct: consisting of pooled HLMs (0.5 mg/ml) or RLMs (1 mg/ml) and an NADPH-regenerating system; tissue Corning Gentest Corporation; host or cells: pooled human liver microsomes (n = 20)
Briefly: CYP2E1 inhibition (chlorzoxazone 6-hydroxylation) in pooled human liver microsomes, cocktail LC-MS/MS. It is filed as in vitro ADME. As to the method:
(§1) Microsomal incubation was carried out at 37 °C in a mixture of 200 μl in 0.05 M Tris/HCl buffer (pH 7.4) consisting of pooled HLMs (0.5 mg/ml) or RLMs (1 mg/ml) and an NADPH-regenerating system including MgCl2 (5 mM), G6P (10 mM), G6PDH (0.4 U/ml) and NADP (1 mM). Substrates were added into the incubation mixture and obtained the final concentrations (10 μM phenacetin for CYP1A2, 20 μM bupropion for CYP2B1/6, 20 μM tolbutamide for CYP2C9/11, 5 μM dextromethorphan for CYP2D1/6, 20 μM chlorzoxazone for CYP2E1 and 10 μM midazolam for CYP3A2/4), which were close to Km respectively. The proportion of organic solvent was not higher than 1% (v/v) in the incubation mixture. After pre-incubation for 5 min, the reaction was initiated by addition of NADP. Incubations were performed for 20 min, stopped by adding 200 μl ice-cold acetonitrile. And then 20 μl internal standard solution was added (3-acetamidophenol 2 μg/ml, chlorpropamide 2 μg/ml and mebendazole 2 μg/ml). The solution was mixed thoroughly for 3 min and centrifuged for 10 min at 16,000 × g at 4 °C. The supernatant (60 μl) was transferred to autosampler vials, and 2 μl was injected into LC-MS/MS system.
(§2) The IC50 (concentration of inhibitor to cause 50% inhibition of original enzyme activity) values were determined with the same incubation condition above. The specific concentrations of plumbagin were ranged from 0.1 μM to 50 μM. The IC50 values were calculated by plotting relative activities over the logarithm of plumbagin concentrations using GraphPad Prism 5.0 (GraphPad software Inc., CA, USA).
(§3) Cocktail probe substrates were then added and incubated for 20 min. Reactions were stopped with 200 μl ice-cold acetonitrile. The samples were treated according to the microsomal incubation method and then injected into LC-MS/MS for analysis.
(§4) Kinetic studies were performed for determining the types of inhibition on CYP by plumbagin. Pooled HLMs (0.5 mg/ml) or RLMs (1 mg/ml) with plumbagin (1 μM, 2 μM, 5 μM and 10 μM) were incubated in 0.05 M Tris/HCl buffer (pH 7.4) for 20 min at 37 °C. A series of concentrations for cocktail probe substrates were used: 2.5–20 μM phenacetin for CYP1A2; 5–40 μM bupropion for CYP2B1/6; 5–40 μM tolbutamide for CYP2C9/11; 1.25–10 μM dextromethorphan for CYP2D1/6; 5–40 μM chlorzoxazone for CYP2E1; 2.5–80 μM midazolam for CYP3A2; and 0.625–5 μM midazolam for CYP3A4. Enzyme kinetics as well as statistical analysis were performed using GraphPad Prism 5.0.
(§5) All data were presented as mean ± SD. The IC50 values were fitted by non-linear regression analysis using GraphPad Prism 5.0. The kinetic parameters were obtained by fitting velocity data to kinetic models (Michaelis-Menten) using GraphPad Prism 5.0. The Lineweaver-Burk Plot (the reciprocal of reaction velocities versus the reciprocal of substrates concentrations) was used to determine the quality of fit to a specific inhibition model. The inhibition constant (Ki) was obtained by a secondary plot using the slopes of the primary Lineweaver-Burk Plot (Km/Vmax versus inhibitor concentrations). αKi was obtained from a secondary plot using the y-intercepts of the Lineweaver-Burk plot (1/Vmax versus inhibitor concentrations). All results were analyzed in quadruplicate. One-way analysis of variance was used to estimate the significance of differences. There was statistical significance between control and test groups if p < 0.05.

The target of another data set is T2, CYP3A2 (Rattus norvegicus, UniProt P05183).
T2 construct: consisting of pooled HLMs (0.5 mg/ml) or RLMs (1 mg/ml) and an NADPH-regenerating system; from tissue; host or cells: rat liver microsomes prepared in house
T2 sequence (P05183 1-504): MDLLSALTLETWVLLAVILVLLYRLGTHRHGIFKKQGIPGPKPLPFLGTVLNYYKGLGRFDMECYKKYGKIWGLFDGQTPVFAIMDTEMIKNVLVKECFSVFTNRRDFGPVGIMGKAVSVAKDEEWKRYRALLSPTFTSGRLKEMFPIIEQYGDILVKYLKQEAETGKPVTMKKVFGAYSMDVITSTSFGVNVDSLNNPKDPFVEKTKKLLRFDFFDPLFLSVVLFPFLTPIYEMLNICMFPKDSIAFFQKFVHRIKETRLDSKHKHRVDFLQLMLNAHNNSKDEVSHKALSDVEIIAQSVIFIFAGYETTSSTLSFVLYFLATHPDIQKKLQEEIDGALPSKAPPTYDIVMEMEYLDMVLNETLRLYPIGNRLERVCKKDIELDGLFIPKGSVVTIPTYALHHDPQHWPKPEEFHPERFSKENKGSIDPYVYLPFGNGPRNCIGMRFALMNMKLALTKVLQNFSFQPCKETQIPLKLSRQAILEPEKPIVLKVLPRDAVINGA
It is filed as in vitro ADME. The procedure: (§6) In this study, the rats were fasted overnight and killed by cervical dislocation before removal of the liver. The liver was excised, rinsed with ice-cold saline (0.9% NaCl w/v), weighed and homogenized in a […] Tris/KCl buffer (pH 7.4). Subsequently, the homogenate was centrifuged at 10,000 × g at 4 °C for 30 min. The supernatant was then centrifuged at 105,000 × g at 4 °C for 60 min. The pellet was reconstituted with […] Tris/KCl buffer (pH 7.4) and stored at −150 °C until use. The protein concentration of the liver microsomes was determined by a protein quantitative assay using bicinchoninic acid[22].
as §1, §2, §3, §4
as §5, with “There was statistical significance between control and test groups if p < 0.05.” left out

Data set [2] has as its target T3, CYP2E1 (Rattus norvegicus, UniProt P05182).
T3 construct: consisting of pooled HLMs (0.5 mg/ml) or RLMs (1 mg/ml) and an NADPH-regenerating system; from tissue; host or cells: rat liver microsomes prepared in house
Briefly: biochemical. It is filed as in vitro ADME. As to the method: as §6, §1
The IC50 (concentration of inhibitor to cause 50% inhibition of original enzyme activity) values were determined with the same incubation condition above. The specific concentrations of plumbagin were ranged from 0.1 μM to 50 μM. […]
All data were presented as mean ± SD. […] All results were analyzed in quadruplicate. […]

The conditions of data set [3]: rat, in vivo, po, 100 mg/kg; cited from earlier work.

T1 sequence (P05181 whole entry): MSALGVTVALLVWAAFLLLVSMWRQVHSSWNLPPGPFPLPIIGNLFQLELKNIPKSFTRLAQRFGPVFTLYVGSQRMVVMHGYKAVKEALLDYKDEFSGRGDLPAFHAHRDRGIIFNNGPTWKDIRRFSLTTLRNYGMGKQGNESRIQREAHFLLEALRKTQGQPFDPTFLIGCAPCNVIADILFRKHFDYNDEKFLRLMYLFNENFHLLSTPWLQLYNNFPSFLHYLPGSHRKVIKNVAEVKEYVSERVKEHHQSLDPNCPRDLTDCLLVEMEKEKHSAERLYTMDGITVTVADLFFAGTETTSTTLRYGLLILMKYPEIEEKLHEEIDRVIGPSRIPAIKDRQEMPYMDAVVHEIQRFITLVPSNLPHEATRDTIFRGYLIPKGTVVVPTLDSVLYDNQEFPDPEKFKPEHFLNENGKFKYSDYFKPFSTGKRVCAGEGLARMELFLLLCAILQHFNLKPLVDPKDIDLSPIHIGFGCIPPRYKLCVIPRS
T3 sequence (P05182 whole entry): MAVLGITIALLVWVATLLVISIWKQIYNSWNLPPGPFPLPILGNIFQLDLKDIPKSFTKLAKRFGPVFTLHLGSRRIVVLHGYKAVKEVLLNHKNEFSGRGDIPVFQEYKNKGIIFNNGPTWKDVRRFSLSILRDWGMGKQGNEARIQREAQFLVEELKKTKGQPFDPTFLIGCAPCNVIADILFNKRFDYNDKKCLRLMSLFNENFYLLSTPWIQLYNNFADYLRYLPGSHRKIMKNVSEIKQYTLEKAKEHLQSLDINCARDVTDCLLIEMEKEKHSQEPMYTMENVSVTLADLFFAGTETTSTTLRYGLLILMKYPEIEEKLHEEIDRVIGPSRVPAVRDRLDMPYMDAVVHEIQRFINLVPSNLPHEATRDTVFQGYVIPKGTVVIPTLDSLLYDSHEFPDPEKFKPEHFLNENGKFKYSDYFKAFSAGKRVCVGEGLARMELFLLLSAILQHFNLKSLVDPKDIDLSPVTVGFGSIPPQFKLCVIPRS

As for `CC1=CC(=O)c2c(O)cccc2C1=O` [plumbagin, 5-hydroxy-2-methyl-1,4-naphthoquinone], at CYP2E1 [1], half-maximal inhibition (IC50) was put at 6.54 µM; the affinity, expressed as Ki, was 650 nM; the Type of inhibition result is on record as “mixed-type”. The compound further came in with a αKi on CYP2E1 [1] (HLMs, secondary plot of y-intercepts, chlorzoxazone 5-40 μM) of 2.64 µM. At CYP2E1 [1] (human, 20 min, pH 7.4), this compound yielded a α of 0.25. In addition, the 50% inhibitory concentration (IC50) against CYP3A2 worked out at 8.47 µM. Further, at CYP2E1 [2], inhibition was half-maximal at 3.72 µM (IC50), the Ki was 6.28 µM and the Type of inhibition entry was “competitive”. Moreover, in data set [3], the maximum concentration (Cmax) was 1860 nM, the “area under the curve (AUC) in the plasma” value is 271.9 µg·min/mL, the “half-life (t1/2) in the plasma” value is listed as 1028 min and the “peak concentration (Cmax) in the plasma” value was 0.35 µg/mL.

Source of the values: article PMC4916434, “Evaluation of the inhibition potential of plumbagin against cytochrome P450 using LC-MS/MS and cocktail approach” (Scientific Reports, 2016).
